Values quoted from earlier work in patent EP4379726A1, “THE METHOD FOR PREDICTING THE OCCURRENCE OF THE OFF-TARGET TOXICITY CAUSED BY SIMILARITY BETWEEN A TARGET EPITOPE AND PUTATIVE OFF-TARGET EPITOPES” (Ardigen S.A., priority 2022, dated 2024).

System: AFP 158 -Specific TCR Engineered T Cells
Conditions: in vitro X-scan, engineered T cells against AFP 158 (FMNKFIYEI)

ILNKFIPDI
activation of the T-cell: could activate the T-cell
